The text below walks through data of patent publication US9982232B2, “Methods of generating cells with multilineage potential” (NEWSOUTH INNOVATIONS PTY LIMITED, priority 2012, dated 2018).

Common to all, as to type: cell-based, mouse
Test [1] relates to primary osteoblasts. Briefly: Inhibitor studies: PDGF-AB/AZA mediated oCFU-F production from primary osteoblasts. The conditions noted are these: inhibitor in reprogramming cocktail from day 1 for 12 days. The protocol: (§1) In vitro differentiated bone, cartilage, fat and long-bone derived osteocytes were first cultured in MSC medium (αMEM+20% FCS+P/S/G) with or without 10 μM 5′Azacitidine (Tocris Biosciences) and with or without cytokine (50 or 100 ng/ml Pdgf-AA or Pdgf-BB or Pdgf-AB, 10 ng/ml bFgf, 20 ng/ml HGF, 10 ng/ml Igf-1 and 10 ng/ml Vegf for 2 days and then cultured in MSC media with or without cytokine for 10 days. In order to investigate the reprogramming cell signalling pathways, inhibitors were added to the reprogramming cocktail from day 1 and kept for 12 days. Media was refreshed every 3-4 days. At the end of day 12 cells were harvested for downstream analysis.
Active Pdgf isoforms stimulate cells by binding to and activating signalling by dimerization of two distinct, but structurally related, membrane bound receptor tyrosine kinases; Pdgf receptor-α (Pdgfrα) and Pdgf receptor-β (Pdgfrβ). Pdgf-BB has a greater binding affinity for Pdgfrβ but can also bind Pdgfrα whereas Pdgf-AA interacts only with Pdgfrα. Therefore, Pdgf-AA induces αα-receptor homodimers, PDGF-AB, both αα-receptor homodimers and αβ-receptor heterodimers and Pdgf-BB, all three dimeric combinations of α and β receptors, however in vivo binding of PDGF-AB is not known. Primary osteoblasts express Pdgfrβ but not Pdgfrα. […]

Test [2] concerns in vitro differentiated bone, cartilage and fat cells. Briefly: CFU-F colony formation and replating of in vitro derived bone, cartilage and fat cells cultured with cytokines with and without AZA. The conditions noted are these: for colony forming potential (CFU-F): cells maintained 12 days in MSC culture medium with supplement. On the procedure:
as §1
CFU-Fs, oCFU-Fs, cCFU-Fs and aCFU-Fs were expanded in bulk culture after plating 10,000 cells per T75 flask. Resulting cells were split every 8 days. CFU-F and oCFU-F colonies were isolated individually using cloning cylinders (‘O” rings) (Sigma-Aldrich) and CFU-F clones (micro, small and large) and Osteocyte oCFU-F clones (micro, small and large) were pooled individually as micro (MC), small (SC) and large (LC) colonies and cultured first in T25 flask for 12 days and then from passage 2 onwards in T75 flask for 12 days. Cumulative cells numbers were calculated and plotted (log 10 scale). Micro, small and large colony's 2ry, 3ry and 4ry colony formation was evaluated by plating single cell from individual colonies into 96 well plates. In order to investigate differences in proliferative capacity of reprogrammed cells compared with primary CFU-Fs, cells were plated on RTCA resistor plate 96 (Roche Diagnostics) (200 cells/well) and recorded using XCELLigence (ACEA Biosciences) every 15 mins for 8 days.
To test whether lineage committed mesodermal cells could be induced to proliferate, bone marrow CFU-Fs (Colony Forming Units-Fibroblast) were harvested from mice, and following in vitro differentiation into bone, cartilage and fat cells, cultured them with different cytokines with and without AZA.
To assess and compare clonal vigour of replated cells, the inventors have developed a system to classify CFU-Fs based on cell number and size (Chong et al., 2011).

Test [3] concerns primary osteoblasts. Put plainly: Surface Pdgf receptor expression and signalling protein levels in primary osteoblasts. The conditions noted are these: within 48 hours of exposure. The protocol:
Cell pellets were lysed in non-denaturing lysis buffer containing Complete Protease inhibitor cocktail (Roche) and PhosStop (Roche), followed by brief sonication using Bioruptor (Diagenode). The supernatant of the whole-cell extracts were loaded onto NuPage 4-12% Bis-Tri Gel (Life Technology) and transferred using iBlot Gel Transfer Kit (Nitrocellulose, Life Technology) according to the manufacturers instructions. Densitometry was performed using GE ImageQuant TL Software Version 7.0.
Active Pdgf isoforms stimulate cells by binding to and activating signalling by dimerization of two distinct, but structurally related, membrane bound receptor tyrosine kinases; Pdgf receptor-α (Pdgfrα) and Pdgf receptor-β (Pdgfrβ). Pdgf-BB has a greater binding affinity for Pdgfrβ but can also bind Pdgfrα whereas Pdgf-AA interacts only with Pdgfrα. Therefore, Pdgf-AA induces αα-receptor homodimers, PDGF-AB, both αα-receptor homodimers and αβ-receptor heterodimers and Pdgf-BB, all three dimeric combinations of α and β receptors, however in vivo binding of PDGF-AB is not known. Primary osteoblasts express Pdgfrβ but not Pdgfrα. […] These included expression of Pdgf receptors α and β, and components of the Jak/Stat and Jnk/c-Jun pathways but not the PI3kinase pathway. […]

Test [4] relates to osteocytes from long bones of Pdgfrα-H2B:GFP mice. Put plainly: Reprogramming of primary osteocytes from Pdgfrα-H2B:GFP mice (CFU-F assays, flow cytometry). The protocol:
Osteocytes were isolated from long bones of either wild-type C57BL/6 or Pdgfra-nGFP mice. The mice were sacrificed at 8-16 weeks of age. Tibias and femurs were removed, cleaned of soft tissues and transferred to ice cold PBS. Bone marrow was flushed out with 2% FCS in PBS and bones were crushed and cut into ˜200 μm-400 μm pieces using a mortar and pestle and scissors. Bone fragments were transferred into 5 ml of collagenase (Type II, 2 mg/ml) in PBS and placed on a water bath shaker at 37° C. for 30 min twice. Supernatant was collected and collagenase was inactivated with 10 ml of 2% FCS and 5 mM EDTA in PBS. Cells were collected through 40 μm cell strainer. Cells were stained for Seal, CD51, CD31, Lin/CD45 and Pdgfrα. These cells were FACS sorted for Sca1^−/CD31^−/Pdgfra-nGFP^−/Pdgfra-Protein^−/CD51^+ osteocytes. FACS sorted osteocytes and bone fragments were cultured independently in complete culture medium (DMEM+P/S/G+100 ug/ml of ascorbate+10% FCS). Cells were cultured at 37° C. and 5% CO2 in the incubator for 8-10 days. […]
To evaluate how primary lineage committed cells respond to PDGF-AB/AZA, the inventors harvested Lin^−, CD45^−/Sca1^−/CD31^−/Pdgfrα-nGFP^−/Pdgfrα^−/CD51^+ osteocytes from long bones of Pdgfrα-H2B:GFP mice. […] The emergence of CFU-F capacity in reprogrammed osteocytes was evaluated by replating cells for CFU-F assays from the end of day 1 onwards (FIG. 2A).
(In general: A flow cytometer gives signals particle by particle.)

With `COc1cc2ncc(-c3ccccc3)nc2cc1OC` [AG1296], in the test on primary osteoblasts [1], the “PDGF-AB/AZA mediated oCFU-F production from primary osteoblasts in presence of inhibitor” value is “abolished”.
As for `Nc1ncn([C@@H]2O[C@H](CO)[C@@H](O)[C@H]2O)c(=O)n1` [AZA, Azacitidine, reference compound], in test [2] (bone, cartilage and fat cells), the “serial passaging / replating of colonies” value is on record as “could not be replated at all” and the “number of CFU-Fs generated at first passage” value (shortened to “number of CFU-Fs generated”) was “also generated CFU-Fs at first passage”. In the test with primary osteoblasts [3], the “surface Pdgfrα protein expression on primary osteoblasts” value was “Pdgfrα protein expression was evident”.
On to Vegf, for which, in test [2] (bone, cartilage and fat cells), the “number of CFU-Fs generated” value is “substantially lower than with PDGF-AB” and the “numbers of large colonies at first passage” value (“numbers of large colonies” below) is “few large colonies”. Further, in test [2], the “colony forming potential (CFU-F)” value is reported as “either no or limited CFU-F potential”.
The like results for “Igf-1: insulin-like growth factor-1, tested with or without AZA” were, in that order, “substantially lower than with PDGF-AB”, “few large colonies” and “either no or limited CFU-F potential”.

B1: Hgf: hepatocyte growth factor, tested with or without AZA (protein, UniProt Q08048 33-495; Q08048 496-728, looked up)
Hepatocyte growth factor …: QKKRRNTLHEFKKSAKTTLTKEDPLLKIKTKKVNSADECANRCIRNRGFTFTCKAFVFDKSRKRCYWYPFNSMSSGVKKGFGHEFDLYENKDYIRNCIIGKGGSYKGTVSITKSGIKCQPWNSMIPHEHSFLPSSYRGKDLQENYCRNPRGEEGGPWCFTSNPEVRYEVCDIPQCSEVECMTCNGESYRGPMDHTESGKTCQRWDQQTPHRHKFLPERYPDKGFDDNYCRNPDGKPRPWCYTLDPDTPWEYCAIKTCAHSAVNETDVPMETTECIQGQGEGYRGTSNTIWNGIPCQRWDSQYPHKHDITPENFKCKDLRENYCRNPDGAESPWCFTTDPNIRVGYCSQIPKCDVSSGQDCYRGNGKNYMGNLSKTRSGLTCSMWDKNMEDLHRHIFWEPDASKLNKNYCRNPDDDAHGPWCYTGNPLIPWDYCPISRCEGDTTPTIVNLDHPVISCAKTKQLR
Hepatocyte growth factor beta …: VVNGIPTQTTVGWMVSLKYRNKHICGGSLIKESWVLTARQCFPARNKDLKDYEAWLGIHDVHERGEEKRKQILNISQLVYGPEGSDLVLLKLARPAILDNFVSTIDLPSYGCTIPEKTTCSIYGWGYTGLINADGLLRVAHLYIMGNEKCSQHHQGKVTLNESELCAGAEKIGSGPCEGDYGGPLICEQHKMRMVLGVIVPGRGCAIPNRPGIFVRVAYYAKWIHKVILTYKL
Regarding B1, in test [2] (bone, cartilage and fat cells), the “number of CFU-Fs generated” value is reported as “substantially lower than with PDGF-AB” and the “numbers of large colonies” value is on record as “few large colonies”. Besides, the “colony forming potential (CFU-F)” value in test [2] is listed as “either no or limited CFU-F potential”.

B2: Pdgf-BB: platelet derived growth factor BB, tested with/without AZA (protein, UniProt P31240 82-190, looked up)
Platelet-derived growth …: SLGSLAAAEPAVIAECKTRTEVFQISRNLIDRTNANFLVWPPCVEVQRCSGCCNNRNVQCRASQVQMRPVQVRKIEIVRKKPIFKKATVTLEDHLACKCETIVTPRPVT
modifications: homodimer
notes: platelet derived growth factor BB, tested with/without AZA
As for B2, in test [4] (12 days treatment), the “passaging of CFU-F colonies from treated osteocytes” value is “could not be passaged”. Besides, in test [4] (up to 12 days treatment), the “CFU-F capacity of treated osteocytes” value is given as “very limited CFU-F capacity”.

B3: bFgf: basic fibroblast growth factor, tested with or without AZA (protein, UniProt P15655 10-154, looked up)
Fibroblast growth factor 2: PALPEDGGAAFPPGHFKDPKRLYCKNGGFFLRIHPDGRVDGVREKSDPHVKLQLQAEERGVVSIKGVCANRYLAMKEDGRLLASKCVTEECFFFERLESNNYNTYRSRKYSSWYVALKRTGQYKLGSKTGPGQKAILFLPMSAKS
For B3, in test [2] (bone, cartilage and fat cells), the “number of CFU-Fs generated” value is given as “substantially lower than with PDGF-AB” and the “numbers of large colonies” value is “few large colonies”. Moreover, the “colony forming potential (CFU-F)” value in test [2] is “either no or limited CFU-F potential”.
